The source of these data is patent publication US6358947B1 (American Home Products Corporation, priority 1999, dated 2002).

Common to all, as to format: cell-based
The target in test [1] is T1, human PR (Homo sapiens, UniProt P06401).
T1 sequence (P06401 1-933): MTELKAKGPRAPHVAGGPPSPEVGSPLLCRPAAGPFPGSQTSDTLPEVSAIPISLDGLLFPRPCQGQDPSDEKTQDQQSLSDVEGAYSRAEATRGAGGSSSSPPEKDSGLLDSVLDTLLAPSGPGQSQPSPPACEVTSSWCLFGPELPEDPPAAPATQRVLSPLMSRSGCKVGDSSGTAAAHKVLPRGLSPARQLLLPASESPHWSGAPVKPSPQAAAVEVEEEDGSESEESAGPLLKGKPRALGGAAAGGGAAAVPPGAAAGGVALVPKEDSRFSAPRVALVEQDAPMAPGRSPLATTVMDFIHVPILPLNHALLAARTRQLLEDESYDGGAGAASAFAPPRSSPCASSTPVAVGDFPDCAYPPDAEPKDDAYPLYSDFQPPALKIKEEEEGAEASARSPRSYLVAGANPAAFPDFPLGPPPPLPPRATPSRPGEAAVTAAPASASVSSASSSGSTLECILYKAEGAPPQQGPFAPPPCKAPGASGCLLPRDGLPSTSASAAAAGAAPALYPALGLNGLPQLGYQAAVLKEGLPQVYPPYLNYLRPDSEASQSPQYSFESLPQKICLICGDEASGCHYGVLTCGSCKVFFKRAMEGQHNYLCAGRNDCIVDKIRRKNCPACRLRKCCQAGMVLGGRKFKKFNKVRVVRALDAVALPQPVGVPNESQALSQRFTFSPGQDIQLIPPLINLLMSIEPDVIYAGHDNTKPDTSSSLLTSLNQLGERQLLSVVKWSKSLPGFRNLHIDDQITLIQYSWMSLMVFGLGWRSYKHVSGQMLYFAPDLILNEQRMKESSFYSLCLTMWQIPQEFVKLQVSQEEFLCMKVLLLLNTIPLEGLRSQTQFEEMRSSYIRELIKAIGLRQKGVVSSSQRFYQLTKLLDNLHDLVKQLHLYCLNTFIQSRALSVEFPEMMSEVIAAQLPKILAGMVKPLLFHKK
Briefly: Cotransfection assay, PR agonist, CV-1 cells.
Excerpt: (§1) The cotransfection assay provides a method for identifying functional agonists and partial agonists that mimic, or antagonists that inhibit, the effect of native hormones, and for quantifying their activity for responsive intracellular receptor (IR) proteins. In this regard, the cotransfection assay mimics an in vivo system in the laboratory. Importantly, activity in the cotransfection assay correlates very well with known in vivo activity, such that the cotransfection assay functions as a qualitative and quantitative predictor of a tested compound's in vivo pharmacology.
(§2) In the cotransfection assay, a cloned cDNA for an IR (e.g., human PR, AR or GR) under the control of a constitutive promoter (e.g., the SV 40 promoter) is introduced by transfection (a procedure to induce cells to take up foreign genes) into a background cell substantially devoid of endogenous IRs. This introduced gene directs the recipient cells to make the IR protein of interest. A second gene is also introduced (cotransfected) into the same cells in conjunction with the IR gene. This second gene, comprising the cDNA for a reporter protein, such as firefly luciferase (LUC), is controlled by an appropriate hormone responsive promoter containing a hormone response element (HRE). This reporter plasmid functions as a reporter for the transcription-modulating activity of the target IR. Thus, the reporter acts as a surrogate for the products (mRNA, then protein) normally expressed by a gene under control of the target receptor and its native hormone.
(§3) The cotransfection assay can detect small molecule agonists or antagonists of target IRs. Exposing the transfected cells to an agonist ligand compound increases reporter activity in the transfected cells. This activity can be conveniently measured, e.g., by increasing luciferase production, which reflects compound-dependent, IR-mediated increases in reporter transcription. […] Increasing concentrations of a suspected antagonist will decrease the reporter signal (e.g., luciferase production). The cotransfection assay is therefore useful to detect both agonists and antagonists of specific IRs. Furthermore, it determines not only whether a compound interacts with a particular IR, but whether this interaction mimics (agonizes) or blocks (antagonizes) the effects of the native regulatory molecules on target gene expression, as well as the specificity and strength of this interaction.

The target in test [2] is T2, hER (Homo sapiens, UniProt P03372).
T2 sequence (P03372 1-595): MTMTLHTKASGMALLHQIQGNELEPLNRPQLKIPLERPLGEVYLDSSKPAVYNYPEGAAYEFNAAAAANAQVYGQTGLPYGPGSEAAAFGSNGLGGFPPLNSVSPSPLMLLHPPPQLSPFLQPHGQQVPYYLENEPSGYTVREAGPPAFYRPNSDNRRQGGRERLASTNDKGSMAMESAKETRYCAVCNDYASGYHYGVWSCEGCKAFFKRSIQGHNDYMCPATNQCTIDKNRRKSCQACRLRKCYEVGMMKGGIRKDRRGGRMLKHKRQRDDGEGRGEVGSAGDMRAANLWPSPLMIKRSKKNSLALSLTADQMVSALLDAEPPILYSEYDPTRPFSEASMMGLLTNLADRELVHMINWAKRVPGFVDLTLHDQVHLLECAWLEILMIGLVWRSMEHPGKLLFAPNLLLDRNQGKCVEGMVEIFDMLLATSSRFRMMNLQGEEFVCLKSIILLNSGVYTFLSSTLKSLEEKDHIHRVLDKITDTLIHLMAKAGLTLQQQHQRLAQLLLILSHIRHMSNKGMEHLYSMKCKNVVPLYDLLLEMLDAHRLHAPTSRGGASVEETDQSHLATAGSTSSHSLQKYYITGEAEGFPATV
The experiment in a line: Cotransfection assay, ER agonist. The settings on record: read-out: ER Potency Agon.
Excerpt: as §1, §2, §3

For test [3], the target named is T2, hER. The experiment in a line: Cotransfection assay, ER antagonist. The settings on record: read-out: ER Potency Antag.
Excerpt: as §1, §2, §3
In the next test the target is T3, hMR (Homo sapiens, UniProt P08235).
T3 sequence (P08235 1-984): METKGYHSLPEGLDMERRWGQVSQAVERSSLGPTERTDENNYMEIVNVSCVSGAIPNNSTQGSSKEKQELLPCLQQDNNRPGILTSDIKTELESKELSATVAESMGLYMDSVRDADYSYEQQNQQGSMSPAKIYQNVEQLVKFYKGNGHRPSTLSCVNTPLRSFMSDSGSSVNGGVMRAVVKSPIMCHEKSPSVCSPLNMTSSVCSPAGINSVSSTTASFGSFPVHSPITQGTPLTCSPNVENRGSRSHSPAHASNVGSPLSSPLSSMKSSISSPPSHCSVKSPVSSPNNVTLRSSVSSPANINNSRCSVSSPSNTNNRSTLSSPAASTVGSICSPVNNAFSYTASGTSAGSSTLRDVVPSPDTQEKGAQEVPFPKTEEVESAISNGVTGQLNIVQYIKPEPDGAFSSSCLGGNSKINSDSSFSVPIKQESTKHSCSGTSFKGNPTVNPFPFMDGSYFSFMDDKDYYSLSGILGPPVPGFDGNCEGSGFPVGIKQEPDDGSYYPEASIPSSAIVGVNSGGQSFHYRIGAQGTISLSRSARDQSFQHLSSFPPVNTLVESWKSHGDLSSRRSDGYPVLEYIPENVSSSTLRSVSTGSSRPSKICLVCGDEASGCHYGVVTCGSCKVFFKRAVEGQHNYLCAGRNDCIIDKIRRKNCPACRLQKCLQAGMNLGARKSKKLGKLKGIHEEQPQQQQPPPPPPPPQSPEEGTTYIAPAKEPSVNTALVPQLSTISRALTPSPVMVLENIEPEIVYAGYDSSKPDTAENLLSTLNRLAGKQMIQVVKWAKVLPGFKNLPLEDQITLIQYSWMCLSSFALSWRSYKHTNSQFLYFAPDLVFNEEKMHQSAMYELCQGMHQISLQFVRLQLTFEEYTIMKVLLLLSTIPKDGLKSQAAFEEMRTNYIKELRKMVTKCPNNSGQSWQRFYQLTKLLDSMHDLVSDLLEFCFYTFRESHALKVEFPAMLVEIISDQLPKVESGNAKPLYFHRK
The experiment in a line: Cotransfection assay, MR antagonist. The settings on record: read-out: MR Potency Antag.

Test [4] deals with T1, human PR. Briefly: Cotransfection assay, PR antagonist, CV-1 cells. The settings on record: percent maximal response relative to reference antagonist.
Excerpt: as §1, §2, §3
The target of the next test is T4, hGR (Homo sapiens, UniProt P04150).
T4 sequence (P04150 1-777): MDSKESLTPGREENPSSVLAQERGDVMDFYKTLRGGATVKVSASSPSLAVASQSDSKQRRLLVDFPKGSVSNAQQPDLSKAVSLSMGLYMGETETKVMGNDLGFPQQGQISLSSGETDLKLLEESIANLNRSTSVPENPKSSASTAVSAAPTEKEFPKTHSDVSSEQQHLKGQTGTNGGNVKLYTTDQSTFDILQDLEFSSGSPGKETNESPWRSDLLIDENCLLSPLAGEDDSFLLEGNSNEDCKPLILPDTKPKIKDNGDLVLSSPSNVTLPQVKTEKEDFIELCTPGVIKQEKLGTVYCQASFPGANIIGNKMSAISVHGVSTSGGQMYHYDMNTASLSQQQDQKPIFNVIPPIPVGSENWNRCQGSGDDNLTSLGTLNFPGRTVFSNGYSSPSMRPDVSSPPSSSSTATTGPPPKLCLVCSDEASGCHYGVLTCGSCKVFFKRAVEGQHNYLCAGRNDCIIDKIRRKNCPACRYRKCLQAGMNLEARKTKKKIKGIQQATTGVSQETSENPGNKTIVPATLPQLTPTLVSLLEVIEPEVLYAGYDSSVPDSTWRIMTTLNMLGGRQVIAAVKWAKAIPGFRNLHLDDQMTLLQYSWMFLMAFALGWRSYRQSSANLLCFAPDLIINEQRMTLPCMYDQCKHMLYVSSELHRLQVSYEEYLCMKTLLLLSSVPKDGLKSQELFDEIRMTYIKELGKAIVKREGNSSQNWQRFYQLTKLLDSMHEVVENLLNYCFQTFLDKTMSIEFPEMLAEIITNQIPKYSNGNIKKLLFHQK
Briefly: Cotransfection assay, GR antagonist. The settings on record: read-out: GR Potency Antag.

Excerpt for hGR: as §1, §2, §3
Excerpt for hMR: as §1, §2, §3

Regarding `CC(C)C(=O)Nc1ccc([N+](=O)[O-])c(C(F)(F)F)c1` [Flut, reference compound], the EC50 was above 10 µM on human PR [1] (Table 2, read-out: PR Potency Agon) and above 10 µM on hER [2]. For the same molecule, the IC50 on hER [3] and at hMR was above 10 µM in each case.
Take `CN(C)c1ccc([C@H]2C[C@]3(C)[C@@H](CC[C@]3(O)CCCO)[C@@H]3CCC4=CC(=O)CCC4=C32)cc1` [ZK299, reference compound]: the “PR Agonist CV-1 Cells Efficacy” value at human PR [1] was “na (key: na = not active (i.e. efficacy of <20 and potency of >10,000))”. Besides, the “PR Antagonist CV-1 Cells Efficacy” value at human PR [4] stood at 99%.
As for `CC(=O)S[C@@H]1CC2=CC(=O)CC[C@]2(C)[C@H]2CC[C@@]3(C)[C@@H](CC[C@@]34CCC(=O)O4)[C@H]12` [Spir, reference compound], on hER [2], the EC50 was above 10 µM. For the same molecule, the IC50 at hER [3] is above 10 µM; at hGR it was 2 µM.
